Experimental data taken from ChEMBL document CHEMBL4152362, “Discovery of DS-6930, a potent selective PPARγ modulator. Part II: Lead optimization” (Bioorg Med Chem, 2018).
Values after ≈ are worked out from the molar mass of the structure shown. Active and inactive are the calls of the source. The calls are words filed in the database; no cut-off is given here.

How the values were obtained:
[1] = biological target: T1, Peroxisome proliferator-activated receptor gamma (Homo sapiens, UniProt P37231); assay: Agonist activity at recombinant human GAL4-DBD fused PPARgamma LBD expressed in COS7 cells after 24 hrs by luciferase reporter gene assay; type: cell-based
T1 sequence (P37231 whole entry): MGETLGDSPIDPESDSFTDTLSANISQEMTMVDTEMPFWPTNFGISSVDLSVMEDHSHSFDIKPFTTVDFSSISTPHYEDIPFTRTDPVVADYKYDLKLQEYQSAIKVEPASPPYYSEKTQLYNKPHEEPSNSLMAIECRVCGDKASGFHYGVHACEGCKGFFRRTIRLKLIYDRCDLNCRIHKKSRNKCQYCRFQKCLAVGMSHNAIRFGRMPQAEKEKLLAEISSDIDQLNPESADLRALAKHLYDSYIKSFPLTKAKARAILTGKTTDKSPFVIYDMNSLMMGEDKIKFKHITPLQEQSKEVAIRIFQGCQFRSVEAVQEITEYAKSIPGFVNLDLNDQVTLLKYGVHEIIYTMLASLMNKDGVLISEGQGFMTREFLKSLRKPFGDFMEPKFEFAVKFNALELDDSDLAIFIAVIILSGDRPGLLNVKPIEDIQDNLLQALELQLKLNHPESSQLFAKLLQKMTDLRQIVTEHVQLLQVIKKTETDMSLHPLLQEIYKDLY

[2] = biological target: T2, Peroxisome proliferator-activated receptor gamma (Homo sapiens) (UniProt P37231); assay: Agonist activity at recombinant human GAL4-DBD fused PPARgamma LBD expressed in COS7 cells at 10 uM after 24 hrs by luciferase reporter gene assay relative to rosiglitazone; type: cell-based
T2 sequence (whole entry): T1 sequence (P37231 whole entry)

[3] = biological target: T3, Peroxisome proliferator-activated receptor alpha (Homo sapiens, UniProt Q07869); assay: Agonist activity at recombinant human GAL4-DBD fused PPARalpha LBD expressed in COS7 cells after 24 hrs by luciferase reporter gene assay; type: cell-based
T3 sequence (Q07869 whole entry): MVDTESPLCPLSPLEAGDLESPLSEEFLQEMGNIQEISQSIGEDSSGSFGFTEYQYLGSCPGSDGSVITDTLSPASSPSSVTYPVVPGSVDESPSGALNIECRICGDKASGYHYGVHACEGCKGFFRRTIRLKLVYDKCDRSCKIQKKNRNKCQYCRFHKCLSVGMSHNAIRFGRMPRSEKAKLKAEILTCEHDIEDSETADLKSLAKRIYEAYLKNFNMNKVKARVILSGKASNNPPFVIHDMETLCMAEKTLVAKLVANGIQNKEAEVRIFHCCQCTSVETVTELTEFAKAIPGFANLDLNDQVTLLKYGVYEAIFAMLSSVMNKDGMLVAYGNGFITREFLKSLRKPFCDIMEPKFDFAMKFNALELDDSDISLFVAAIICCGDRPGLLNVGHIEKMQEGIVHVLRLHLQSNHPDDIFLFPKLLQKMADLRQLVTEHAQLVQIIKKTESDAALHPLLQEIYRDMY

[4] = biological target: T4, Peroxisome proliferator-activated receptor alpha (Homo sapiens) (UniProt Q07869); assay: Agonist activity at recombinant human GAL4-DBD fused PPARalpha LBD expressed in COS7 cells at 10 uM after 24 hrs by luciferase reporter gene assay relative to 2-(4-tert-Butylphenoxy)-3-[4-[2-[(4-pyridin-2-ylbenzoyl)amino]ethoxy] phenyl]propionic acid; type: cell-based
T4 sequence (whole entry): T3 sequence (Q07869 whole entry)

[5] = 1-octanol/PBS distribution co-efficient, log D of the compound at […] at pH 7.4 after 30 mins by HPLC-MS/MS method; type: physicochemical
[6] = Aqueous thermodynamic solubility of the compound in pH 6.8 solution up to 4 hrs by HPLC-UV analysis; type: physicochemical; settings: read-out: Therm_solubility
[7] = Apparent permeability of the compound after 4 hrs by PAMPA; type: ADME
[8] = Metabolic stability in human liver microsomes after 0.5 hrs; type: ADME, microsome; settings: read-out: Stability
[9] = Metabolic stability in rat liver microsomes after 0.5 hrs; type: ADME, microsome; settings: read-out: Stability
[10] = Cmax in Zucker diabetic fatty rat at 3 mg/kg, po dosed once daily for 14 days and followed by additional administration on day 15; type: ADME, organism-based; set-up: dose 3 mg/kg, route oral; settings: in vivo
[11] = test system: Rattus norvegicus; assay: Antidiabetic activity in Zucker diabetic fatty rat assessed as reduction in plasma glucose level at 3 mg/kg, po administered once daily for 14 days measured on day 15 relative to control; type: functional; set-up: scale not given: the % may be the effect or the level left
[12] = test system: Rattus norvegicus; assay: Toxicity in Zucker diabetic fatty rat assessed as body weight gain at 3 mg/kg, po administered once daily for 14 days relative to control; type: organism-based; settings: in vivo, 336 h
[13] = Tmax in Zucker diabetic fatty rat at 3 mg/kg, po dosed once daily for 14 days and followed by additional administration on day 15; type: ADME, organism-based; settings: in vivo
[14] = AUC (0 to 24 hrs) in Zucker diabetic fatty rat at 3 mg/kg, po dosed once daily for 14 days and followed by additional administration on day 15; type: ADME, organism-based; set-up: time < 24 hr, dose 3 mg/kg, route oral; settings: in vivo
[15] = biological target: T5, Peroxisome proliferator-activated receptor delta (Homo sapiens) (UniProt Q03181); assay: Agonist activity at PPARdelta (unknown origin) at 10 uM
T5 sequence (whole entry): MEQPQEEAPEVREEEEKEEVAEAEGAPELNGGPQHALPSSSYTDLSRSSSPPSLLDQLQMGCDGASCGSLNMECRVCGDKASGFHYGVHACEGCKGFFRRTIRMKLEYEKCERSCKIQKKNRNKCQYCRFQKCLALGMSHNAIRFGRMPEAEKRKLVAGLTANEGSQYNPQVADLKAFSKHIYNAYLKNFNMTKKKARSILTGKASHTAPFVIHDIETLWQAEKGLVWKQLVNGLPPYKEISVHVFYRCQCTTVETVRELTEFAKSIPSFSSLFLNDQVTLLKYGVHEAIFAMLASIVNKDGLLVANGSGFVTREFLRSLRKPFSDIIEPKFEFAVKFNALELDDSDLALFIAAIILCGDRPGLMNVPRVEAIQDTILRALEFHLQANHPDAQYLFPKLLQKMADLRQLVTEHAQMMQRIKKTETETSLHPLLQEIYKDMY

[16] = test system: Rattus norvegicus; assay: Antidiabetic activity in Zucker diabetic fatty rat assessed as reduction in plasma glucose level administered orally once daily for 21 days measured on day 22; type: functional, organism-based
[17] = test system: Rattus norvegicus; assay: Antidiabetic activity in Zucker diabetic fatty rat assessed as reduction in plasma glucose level at 0.3 mg/kg, po administered once daily for 21 days measured on day 22 relative to control; type: functional; set-up: scale not given: the % may be the effect or the level left
[18] = Cmax in Zucker diabetic fatty rat at 0.3 mg/kg, po administered once daily for 21 days followed by additional administration on day 22; type: ADME, organism-based; set-up: dose 0.3 mg/kg, route oral; settings: in vivo
[19] = Tmax in Zucker diabetic fatty rat at 0.3 mg/kg, po administered once daily for 21 days followed by additional administration on day 22; type: ADME, organism-based; settings: in vivo
[20] = AUC (0 to 24 hrs) in Zucker diabetic fatty rat at 0.3 mg/kg, po administered once daily for 21 days followed by additional administration on day 22; type: ADME, organism-based; set-up: dose 0.3 mg/kg, time < 24 hr, route oral; settings: in vivo

SMILES	EC50 [1]	Emax [2]	EC50 [3]	Emax [4]	logD at 0.5 h [5]	solubility thermodynamic at 4 h [6]	Papp at 4 h [7]	remaining at 0.5 h [8]	remaining at 0.5 h [9]	Cmax [10]	Activity [11]	Activity [12]	Tmax [13]	AUC at 24 h [14]	Activity [15]	Activity [16]	Activity [17]	Cmax [18]	Tmax [19]	AUC at 24 h [20]
Cn1c(COc2cccc(C(=O)O)c2)nc2ccc(Oc3ccc(Cl)cn3)cc21	71 nM	66%	> 10000 nM	3%	1.2	17 µg/mL (≈ 41.5 µM)	16.2 ×10⁻⁶ cm/s	100%	100%	66 ng/mL	14.8%	0.2%	4.4 h	1010 ng·h/mL						
Cc1cc(Cl)cnc1Oc1ccc2nc(COc3cccc(C(=O)O)c3)n(C)c2c1	21 nM	92%	> 10000 nM	7%	1.8	3.9 µg/mL (≈ 9.2 µM)	13.7 ×10⁻⁶ cm/s	85%	81%	120 ng/mL	54.1%	18.5%	2.4 h	1250 ng·h/mL						
Cc1cnc(Oc2ccc3nc(COc4cccc(C(=O)O)c4)n(C)c3c2)c(C)c1				13%											inactive	Dose-dependent effect				
Cc1cnc(Oc2ccc3nc(COc4cccc(C(=O)[O-])c4)n(C)c3c2)c(C)c1.Cc1cnc(Oc2ccc3nc(COc4cccc(C(=O)[O-])c4)n(C)c3c2)c(C)c1.[Ca+2]																	47%	79.2 ng/mL	1.8 h	861 ng·h/mL
Cn1c(COc2cccc(C(=O)O)c2)nc2cnc(Oc3ccc4c(c3)CCC4)cc21	20 nM	55%	> 10000 nM	22%	1.6	70 µg/mL (≈ 168 µM)	16.5 ×10⁻⁶ cm/s	100%	81%	410 ng/mL	1.3%	6.3%	2 h	2410 ng·h/mL	inactive					
Cn1c(COc2cccc(C(=O)O)c2)nc2ccc(Oc3ncc(Cl)cc3Cl)cc21	89 nM	61%	> 10000 nM	6%	1.9	9.9 µg/mL (≈ 22.3 µM)	16.1 ×10⁻⁶ cm/s	100%		130 ng/mL	53.3%	10.1%	2.4 h	1400 ng·h/mL						
